According to ChEMBL document CHEMBL1151128, “Halleridone, a cytotoxic constituent from Cornus controversa” (J Nat Prod, 1988):
Converted amounts (≈) assume the structure as drawn.

Experiments:
[1] = Cytotoxicity against human HeLaS3 cells; format: functional, cell-based; settings: HeLa S3
[2] = tested on: P388; experiment: Cytotoxicity against mouse P388 cells; format: functional, cell-based

| SMILES | IC50 [1] | IC50 [2] |
| --- | --- | --- |
| OC1C=C[C@]2(O)CCO[C@@H]2C1 (stereo not given in full) | > 100 µg/mL | 40.8 µg/mL (≈ 261 µM) |
| CCCC(=O)O[C@]12C=CC(=O)C[C@H]1OCC2 | 2.7 µg/mL (≈ 12 µM) | 0.6 µg/mL (≈ 2.68 µM) |
| CCCCCC(=O)O[C@]12C=CC(=O)C[C@H]1OCC2 | 1.8 µg/mL (≈ 7.13 µM) | 0.3 µg/mL (≈ 1.19 µM) |
| O=C1C=C[C@]2(OC(=O)c3ccccc3)CCO[C@@H]2C1 | 1.6 µg/mL (≈ 6.19 µM) | 0.5 µg/mL (≈ 1.94 µM) |
| O=C1CC[C@]2(O)CCO[C@@H]2C1 | > 100 µg/mL | 43 µg/mL (≈ 275 µM) |
| CCCCCCCC(=O)O[C@]12C=CC(O)C[C@H]1OCC2 (stereo not given in full) | 3.5 µg/mL (≈ 12.4 µM) | 8.4 µg/mL (≈ 29.7 µM) |
| CCCC(=O)O[C@]12C=CC(O)C[C@H]1OCC2 (stereo not given in full) | 8.8 µg/mL (≈ 38.9 µM) | > 100 µg/mL |
| CC(=O)O[C@]12C=CC(O)C[C@H]1OCC2 (stereo not given in full) | > 100 µg/mL | > 100 µg/mL |
| O=C1C=C[C@]2(OC(=O)c3ccc(Cl)cc3)CCO[C@@H]2C1 | 0.9 µg/mL (≈ 3.07 µM) | 0.7 µg/mL (≈ 2.39 µM) |
| CCCCCC(=O)O[C@]12C=CC(O)C[C@H]1OCC2 (stereo not given in full) | 5.3 µg/mL (≈ 20.8 µM) | 38.5 µg/mL (≈ 151 µM) |
| CCCCCCCC(=O)O[C@]12C=CC(=O)C[C@H]1OCC2 | 0.8 µg/mL (≈ 2.85 µM) | 0.3 µg/mL (≈ 1.07 µM) |
| O=C1C=C[C@]2(OC(=O)c3ccccc3Cl)CCO[C@@H]2C1 | 1 µg/mL (≈ 3.42 µM) | 0.4 µg/mL (≈ 1.37 µM) |
| O=C1C=C[C@]2(OC(=O)c3cccc(Cl)c3)CCO[C@@H]2C1 | 1.2 µg/mL (≈ 4.1 µM) | < 0.1 µg/mL |
| CC(=O)O[C@]12C=CC(=O)C[C@H]1OCC2 | 4.1 µg/mL (≈ 20.9 µM) | 0.5 µg/mL (≈ 2.55 µM) |
| O=C1C=C[C@]2(O)CCO[C@@H]2C1 [HALLERIDONE] | 2.8 µg/mL (≈ 18.2 µM) | 2.1 µg/mL (≈ 13.6 µM) |
